One experiment has as its target T1, AMPA receptor GluA2/3 (Homo sapiens, UniProt P42262+P42263).
T1 construct: expressed in transfected cells; host or cells: Xenopus laevis oocytes injected with cRNA (1:1 mix)
As to the kind of experiment: Two-electrode voltage clamp, AMPA receptor GluA2/3 expressed in Xenopus oocytes. Type of experiment: cell-based. As for the experimental part: The AMPA receptor (flip isoform) cDNAs inserted in a SP6 polymerase expression vector (pSP6T) were a generous gift from Prof. Ralf Schoepfer (NPP, UCL). […] AMPA receptor cRNAs were mixed in a nominal 1:1 ratio and ∼5 ng was injected per oocyte.
Xenopus laevis oocytes were purchased from the European Xenopus Resource Centre, University of Portsmouth. Stage V to VI oocytes were mechanically dissected and then subjected to gentle shaking for ∼30–50 min at room temperature with modified Barth’s solution (in mM): 88 NaCl, 1 KCl, 2.4 NaHCO3, 0.82 MgCl2, 0.77 CaCl2, 15 Tris-Cl, adjusted to pH 7.4 with NaOH (Sigma-Aldrich), supplemented with 50 IU/ml penicillin and 50 µg/ml streptomycin (Invitrogen) and 50 µg/ml tetracycline (Sigma-Aldrich) and 1% collagenase (type 1A). Healthy oocytes were manually defolliculated and the injections of cRNA for homomeric subunits alone (GluA1), or heteromeric mixtures of two subunits together (GluA1/GluA2 or GluA2/GluA3) were made using an automated Drummond Nanoinject II injector. The oocytes were then incubated at 17°C in modified Barth’s solution for at least 48 h before use in electrophysiological recordings.
Experiments were performed at room temperature (∼21–23°C). […] Current and voltage electrodes were filled with 300 mM KCl and made from thin-walled borosilicate glass (GC150TF-7.5, Harvard Apparatus) using a PC-10 electrode puller (Narashige Instruments) and had resistances of 0.5–2 MΩ. […] Compounds were dissolved in distilled water or DMSO and dissolved in bathing solution to achieve their final concentrations during experiments, and were applied under gravity flow during the experiment by using a multi-valve perfusion system (VC3-8C, ALA Scientific Instruments). The bath solutions were perfused at a rate of 10 ml/min. […] Data acquisition was performed using the Windows PC-based program, WinEDR v3.0.6 (John Dempster, University of Strathclyde, UK).
Statistical analysis was performed using ANOVA with Tukey post hoc test, paired t-test or unpaired t-test.
For orientation: In two-electrode clamp one electrode senses voltage and the other passes current.

The subject of experiment [1] is epileptiform activity (burst discharges) in hippocampal slices induced by pentylenetetrazol. As to the kind of experiment: In vitro seizure model, pentylenetetrazol-induced epileptiform activity in hippocampal slices. Type of experiment: cell-based, rat. The conditions noted are these: 1 mM; pentylenetetrazol 2 mM, K+ 6 mM. As for the experimental part: Male Sprague-Dawley rats (postnatal Days 19–30) were sacrificed using an overdose of isoflurane or pentobarbitone (500 mg/kg). After decapitation the brain was rapidly removed, the hippocampus or entorhinal cortex-hippocampus slices was dissected from the brain and […] thick transverse slices were prepared on a VT1200S vibratome (Leica) or Vibratome (Vibratome® 1500 sectioning system, Intracell). The slicing was performed in ice-cold sucrose-based solution containing (in mM): 75 sucrose, 87 NaCl, 22 glucose, 2.5 KCl, 7 MgCl2, 1.25 NaH2PO4, 0.5 CaCl2 and 25 NaHCO3, pH 7.4, 315–330 mOsm equilibrated with 95% O2 plus 5% CO2. The slices were then stored in a continuously oxygenated humidified interface holding chamber containing oxygenated artificial CSF (in mM): 120 NaCl, 22 glucose, 2.5 KCl, 1.3 MgSO4, 1 NaH2PO4, 25 NaHCO3 and 2.5 CaCl2, pH 7.4 296 mOsm, where they recovered for at least 1 h before use.
During the experiment, slices were transferred from the interface chamber into a submerged recording chamber, designed to optimize wash-in and wash-out of drugs, and continuously perfused using gravity feed at 3–6 ml/min with prewarmed (36°C) oxygenated artificial CSF (95% O2, 5% CO2). Field potentials were recorded with a glass microelectrode (1–2 MΩ) filled with artificial CSF solution placed in stratum radiatum of CA1 and were filtered at 1 kHz and digitized at 2 kHz (using an npi EXT-02F extracellular amplifier recorded with WinEDR software). In the pentylenetetrazol model, the epileptiform (paroxysmal) activity was induced by application of pentylenetetrazol (2 mM) to the perfusate and [K^+] was increased (to 6 mM); in low-Mg^2+ model, the epileptiform activity was elicited by using Mg^2+-free artificial CSF. Once the frequency of the paroxysmal activity was stable for at least 10 min, compounds were applied to the perfusate for the following 40 min, and washed out for a remaining 20 min. The anticonvulsant effects were evaluated by measuring the change in the frequency of the discharges at minute intervals. The discharge frequency was then averaged every 5 min during the experiment and normalized to baseline. The compounds applied in this study included: 1% dimethyl sulphoxide (DMSO), acetone (10 mM, Sigma), (±)-sodium 3-hydroxybutyrate (BHB) (10 mM, Sigma), and decanoic acid (1 mM, Alfa Aesar Pty). Acetone and decanoic acids were prepared as 1000× stocks in DMSO, and BHB was prepared as 100× stock. Stocks were dissolved in artificial CSF to achieve their final concentrations during experiments, and where applicable, experiments included constant levels of DMSO.

For orientation: inhibition means how much of the control response was suppressed. Usually IC50 stands for the concentration needed to halve the response being measured.

Molecules are shown by their SMILES. Read-outs that look alike come from different tables or passages of the source.

T1 sequence (P42262 22-883 isoform P42262-2 limits assumed): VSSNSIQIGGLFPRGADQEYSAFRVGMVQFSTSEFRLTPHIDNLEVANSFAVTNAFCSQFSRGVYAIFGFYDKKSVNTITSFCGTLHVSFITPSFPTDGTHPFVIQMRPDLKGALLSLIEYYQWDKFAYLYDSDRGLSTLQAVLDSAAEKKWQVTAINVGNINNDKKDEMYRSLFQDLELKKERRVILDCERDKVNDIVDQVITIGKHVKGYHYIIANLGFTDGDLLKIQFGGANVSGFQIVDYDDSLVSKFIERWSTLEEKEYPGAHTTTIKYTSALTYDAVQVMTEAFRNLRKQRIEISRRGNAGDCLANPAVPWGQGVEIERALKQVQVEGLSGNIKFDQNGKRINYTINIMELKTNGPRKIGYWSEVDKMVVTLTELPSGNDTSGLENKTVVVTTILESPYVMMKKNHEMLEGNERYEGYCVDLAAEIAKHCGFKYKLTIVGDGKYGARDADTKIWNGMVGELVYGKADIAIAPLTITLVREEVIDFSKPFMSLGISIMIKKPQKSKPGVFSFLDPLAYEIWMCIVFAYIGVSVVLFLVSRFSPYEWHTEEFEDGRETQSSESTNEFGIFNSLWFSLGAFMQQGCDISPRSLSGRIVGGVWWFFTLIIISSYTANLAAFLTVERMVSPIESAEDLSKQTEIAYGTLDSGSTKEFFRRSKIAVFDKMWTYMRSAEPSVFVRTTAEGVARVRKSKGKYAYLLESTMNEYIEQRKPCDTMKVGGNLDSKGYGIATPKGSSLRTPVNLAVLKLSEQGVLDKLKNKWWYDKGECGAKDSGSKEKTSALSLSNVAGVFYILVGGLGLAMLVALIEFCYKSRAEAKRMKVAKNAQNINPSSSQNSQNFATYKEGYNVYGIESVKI
T1 sequence (P42263 29-894 isoform P42263-2 limits assumed): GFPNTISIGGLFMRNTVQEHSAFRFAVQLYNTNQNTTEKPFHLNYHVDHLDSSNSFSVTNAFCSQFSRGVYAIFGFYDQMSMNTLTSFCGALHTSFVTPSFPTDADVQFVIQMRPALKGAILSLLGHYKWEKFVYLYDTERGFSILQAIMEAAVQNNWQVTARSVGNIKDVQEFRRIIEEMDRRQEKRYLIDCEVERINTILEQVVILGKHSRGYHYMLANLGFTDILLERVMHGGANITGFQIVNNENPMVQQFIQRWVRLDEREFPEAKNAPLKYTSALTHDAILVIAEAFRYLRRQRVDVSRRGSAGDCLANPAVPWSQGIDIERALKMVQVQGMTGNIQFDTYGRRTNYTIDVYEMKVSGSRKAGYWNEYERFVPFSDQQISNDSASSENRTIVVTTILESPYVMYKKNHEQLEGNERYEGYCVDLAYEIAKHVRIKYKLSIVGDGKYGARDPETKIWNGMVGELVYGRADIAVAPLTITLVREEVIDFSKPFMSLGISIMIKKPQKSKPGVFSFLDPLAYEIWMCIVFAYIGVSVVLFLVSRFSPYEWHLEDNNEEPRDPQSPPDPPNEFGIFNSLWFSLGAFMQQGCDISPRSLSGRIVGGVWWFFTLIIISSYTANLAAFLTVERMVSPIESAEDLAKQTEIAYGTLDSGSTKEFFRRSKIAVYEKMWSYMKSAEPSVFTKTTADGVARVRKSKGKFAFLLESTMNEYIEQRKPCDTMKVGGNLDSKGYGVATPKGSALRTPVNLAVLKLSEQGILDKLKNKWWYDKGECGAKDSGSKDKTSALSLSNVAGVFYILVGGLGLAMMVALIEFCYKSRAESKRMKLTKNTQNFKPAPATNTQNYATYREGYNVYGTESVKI

For `CCCCCCCCCC(=O)O` [decanoic acid], the inhibition at 100 µM at AMPA receptor GluA2/3 (100 µM, read-out: inhibition of AMPA-mediated currents) is about 20%. Also, the “decrease in AMPA receptor responses” value at AMPA receptor GluA2/3 (1 mM) is 60–70%. Further, the “AMPA receptor current following activation with AMPA” value on AMPA receptor GluA2/3 (agonist AMPA 30 µM, n = 8) is on record as 16.7 ± 2.7 % of AMPA alone. Further, the AMPA receptor currents on AMPA receptor GluA2/3 (compound 1 mM, currents elicited by 100 µM L-glutamate, −50 mV) is 32.4 ± 2.0 % of control. Besides, the 50% inhibitory concentration (IC50) was determined as 430 ± 90 µM at AMPA receptor GluA2/3 (glutamate 100 µM, membrane potential −40 mV, n = 6, read-out: IC50); 1110 ± 50 µM on AMPA receptor GluA2/3 (glutamate 100 µM, membrane potential −80 mV, n = 6, read-out: IC50); 520 ± 20 µM on AMPA receptor GluA2/3 (glutamate 100 µM, read-out: IC50, inhibition of glutamate-induced AMPA receptor current); 540 ± 30 µM at AMPA receptor GluA2/3 (glutamate 1 mM, n = 10, read-out: IC50, inhibition of glutamate-induced AMPA receptor current). For the same compound, in experiment [1], the “effect on epileptiform activity” value is on record as “completely blocked”.

The record behind these values is publication PMC4805082, “Seizure control by decanoic acid through direct AMPA receptor inhibition” (Brain, 2015).
